Experimental findings from patent EP0346187B1, “Novel GTP binding protein and method for production thereof” (MITSUBISHI KASEI CORPORATION, priority 1988, dated 1989) are described below.

For test [1], the target named is T1, G protein (Smg p21), molecular weight of 22,000, purified from bovine brain (Bos taurus, UniProt P62833).
T1 construct: a crude membrane fraction was extracted with sodium cholate from bovine brain; from tissue; host or cells: bovine brain (crude membrane fraction, cholate extract)
T1 sequence (P62833 1-181 limits assumed): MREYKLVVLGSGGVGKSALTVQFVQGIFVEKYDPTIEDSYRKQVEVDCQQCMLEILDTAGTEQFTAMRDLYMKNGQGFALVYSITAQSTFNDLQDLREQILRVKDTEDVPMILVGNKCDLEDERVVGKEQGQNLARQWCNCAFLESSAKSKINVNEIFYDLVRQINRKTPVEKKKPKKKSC
Put plainly: GTP binding activity of purified G protein (Smg p21). The text has this:
(§1) • (a) Crude G protein with molecular weight (relative molecular weight : Mr) of 20,000 to 25,000 was obtained in accordance with the method of Kikuchi, et al. (Journal of the Biological Chemistry, 263, p 2897 - 2904, 1988). Specifically, a crude membrane fraction was extracted with sodium cholate from bovine brain, and the fraction was fractionated on Ultrogel AcA-44 column chromatography to separate and obtain a fraction at the second peak among two peaks showing GTP binding activity. The fraction thus obtained was purified on phenyl Sepharose CL-4B column chromatography and then further fractionated on hydroxyapatite column chromatography to separate and obtain a fraction at the first peak. Then, the first peak fraction was fractionated on Mono Q HR 5/5 column chromatography and the fraction at the first peak was separated and collected to obtain a crude G protein with Mr of 20,000 - 25,000. • (b) The crude G protein obtained in (a) above was subjected to Mono S HR 5/5 column chromatography equilibrated with a buffer solution of 50 mM sodium acetate (pH, 5.0) containing 1 mM EDTA, 1mM dithiothreitol, 5 mM magnesium chloride and 0.6 % CHAPS (3- [(3-cholamidopropyl) dimethylammonio]-1-propane sulfonate). After washing with 5 ml of the same buffer solution, it was eluted out by the same buffer solution (20 ml) with a concentration gradient of sodium chloride (0 - 1.0 M). […]

In test [2] the target is T1, G protein (Smg p21), molecular weight of 22,000, purified from bovine brain. Put plainly: GTP hydrolyzing activity of purified G protein (Smg p21). It is filed as biochemical.
Description: as §1

As to `CCN1C(=O)C=CC1=O` [N-ethylmaleimide], the “Effect of N-ethylmaleimide on GTP Binding Activity” value in test [1] (no concentration stated, presence of dithiothreitol blocks the inhibition) is on record as “inhibited”.
Turning to `Nc1nc2c(ncn2[C@@H]2O[C@H](COP(=O)(O)OP(=O)(O)OP(=O)(O)O)[C@@H](O)[C@H]2O)c(=O)[nH]1` [GTP, guanosine-5-triphosphate], the Kd (commonly a measure of binding affinity in units of concentration) in test [1] (purified G protein (Smg p21) from bovine brain) came to 30 ± 6 nM. In test [2], this molecule yielded a GTP Hydrolyzing Activity (number of turnovers) of 0.005 min⁻¹.
